These results are taken from patent publication US9682995B2, “Amino-substituted isothiazoles” (BAYER PHARMA AKTIENGESELLSCHAFT, priority 2013, dated 2017).

The subject of assay [1] is Caco2. Put plainly: Proliferation assay (crystal violet), Caco2. The following applies: Homo sapiens, Caco-2, 96 h; Caco2, 4 days; read-out: Inhibition of proliferation IC50 Caco2. The format is cell-based. How it is done:
(§1) Cultivated tumor cells (cells were ordered from ATCC, except HeLa-MaTu and HeLa-MaTu-ADR, which were ordered from EPO-GmbH, Berlin) were plated at a density of 1000 to 5000 cells/well, depending on the growth rate of the respective cell line, in a 96-well multititer plate in 200 μL of their respective growth medium supplemented 10% fetal calf serum. After 24 hours, the cells of one plate (zero-point plate) were stained with crystal violet (see below), while the medium of the other plates was replaced by fresh culture medium (200 μl), to which the test substances were added in various concentrations (0 μM, as well as in the range of 0.001-10 μM; the final concentration of the solvent dimethyl sulfoxide was 0.5%). The cells were incubated for 4 days in the presence of test substances. Cell proliferation was determined by staining the cells with crystal violet: the cells were fixed by adding 20 μl/measuring point of an 11% glutaric aldehyde solution for 15 minutes at room temperature. After three washing cycles of the fixed cells with water, the plates were dried at room temperature. The cells were stained by adding 100 μl/measuring point of a 0.1% crystal violet solution (pH 3.0). After three washing cycles of the stained cells with water, the plates were dried at room temperature. The dye was dissolved by adding 100 μl/measuring point of a 10% acetic acid solution. Absorption was determined by photometry at a wavelength of 595 nm. The change of cell number, in percent, was calculated by normalization of the measured values to the absorption values of the zero-point plate (=0%) and the absorption of the untreated (0 μm) cells (=100%). The IC50 values were determined by means of a 4 parameter fit.

Assay [2] deals with NCI-H460. Put plainly: Proliferation assay (crystal violet), NCI-H460. The format is cell-based. As to conditions: Homo sapiens, 96 h; NCI-H460, 4 days; read-out: Inhibition of proliferation IC50 NCI-H460. How it is done: as §1
For assay [3], the system named is DU145. Briefly: Proliferation assay (crystal violet), DU145. The format is cell-based. The following applies: Homo sapiens, DU-145, 96 h; DU145, 4 days; read-out: Inhibition of proliferation IC50 DU145. How it is done: as §1
For assay [4], the system named is B16F10. Put plainly: Proliferation assay (crystal violet), B16F10. The class given is cell-based. The following applies: Mus musculus, B16-F10, 96 h; B16F10, 4 days; read-out: Inhibition of proliferation IC50 B16F10. How it is done:
as §1

The test system of assay [5] is HeLa-MaTu-ADR. Put plainly: Proliferation assay (crystal violet), HeLa-MaTu-ADR. As to conditions: 96 h, 4 days, read-out: Inhibition of proliferation IC50 HeLa-MaTu-ADR. The class given is cell-based. How it is done:
as §1

Assay [6] has as its target 456 kinases (of these 395 non-mutant kinases) (Homo sapiens, UniProt P00533, DEL752-759). Put plainly: Kinase Profiling (KINOMEscan). The class given is binding. As to conditions: EGFR(S752-I759del); 10 μM.
Assay [7] deals with 456 kinases (of these 395 non-mutant kinases) (Homo sapiens, UniProt P21127). Put plainly: Kinase Profiling (KINOMEscan). The class given is binding. The following applies: CDC2L1; 10 μM.
Assay [8] deals with 456 kinases (of these 395 non-mutant kinases) (Homo sapiens, UniProt Q86YV6). Put plainly: Kinase Profiling (KINOMEscan). The class given is binding. As to conditions: MYLK4; 10 μM.
Assay [9] addresses 456 kinases (of these 395 non-mutant kinases) (Homo sapiens, UniProt P49840). Put plainly: Kinase Profiling (KINOMEscan). The class given is binding. The following applies: GSK3A; 10 μM.
The target in assay [10] is 456 kinases (of these 395 non-mutant kinases) (Homo sapiens, UniProt Q00532). Put plainly: Kinase Profiling (KINOMEscan). As to conditions: CDKL1; 10 μM. The class given is binding.
Assay [11] concerns the target 456 kinases (of these 395 non-mutant kinases) (Homo sapiens, UniProt Q9P289). Put plainly: Kinase Profiling (KINOMEscan). The format is binding. As to conditions: MST4; 10 μM.
Assay [12] addresses 456 kinases (of these 395 non-mutant kinases) (Homo sapiens, UniProt Q7L7X3). Briefly: Kinase Profiling (KINOMEscan). The class given is binding. As to conditions: TAOK1; 10 μM.
In assay [13] the target is 456 kinases (of these 395 non-mutant kinases) (Homo sapiens, UniProt P57058). Briefly: Kinase Profiling (KINOMEscan). The class given is binding. The following applies: HUNK; 10 μM.
Assay [14] concerns the target 456 kinases (of these 395 non-mutant kinases) (Homo sapiens, UniProt P29597). Put plainly: Kinase Profiling (KINOMEscan). The class given is binding. The following applies: 10 μM.
For assay [15], the target named is 456 kinases (of these 395 non-mutant kinases) (Homo sapiens, UniProt Q9BQI3). Briefly: Kinase Profiling (KINOMEscan). The class given is binding. The following applies: EIF2AK1; 10 μM.
Assay [16] concerns the target 456 kinases (of these 395 non-mutant kinases) (Homo sapiens, UniProt Q15418). Put plainly: Kinase Profiling (KINOMEscan). The following applies: 10 μM. The class given is binding.
In assay [17] the target is 456 kinases (of these 395 non-mutant kinases) (Homo sapiens, UniProt Q2M2I8). Put plainly: Kinase Profiling (KINOMEscan). The following applies: AAK1; 10 μM. The class given is binding.
Assay [18] has as its target 456 kinases (of these 395 non-mutant kinases) (Homo sapiens, UniProt Q9Y2H1). Briefly: Kinase Profiling (KINOMEscan). The following applies: NDR2; 10 μM. The format is binding.
The target of assay [19] is 456 kinases (of these 395 non-mutant kinases) (Homo sapiens, UniProt O94921). Briefly: Kinase Profiling (KINOMEscan). The following applies: PFTK1; 10 μM. The format is binding.
Assay [20] addresses 456 kinases (of these 395 non-mutant kinases) (Homo sapiens, UniProt P42681). Briefly: Kinase Profiling (KINOMEscan). The class given is binding. As to conditions: TXK; 10 μM.
Assay [21] has as its target 456 kinases (of these 395 non-mutant kinases) (Homo sapiens, UniProt Q96Q40). Put plainly: Kinase Profiling (KINOMEscan). The class given is binding. The following applies: PFTAIRE2; 10 μM.
For assay [22], the target named is 456 kinases (of these 395 non-mutant kinases) (Homo sapiens, UniProt Q99755). Briefly: Kinase Profiling (KINOMEscan). The class given is binding. As to conditions: PIP5K1A; 10 μM.
The target in assay [23] is 456 kinases (of these 395 non-mutant kinases) (Homo sapiens, UniProt P54756). Briefly: Kinase Profiling (KINOMEscan). As to conditions: EPHA5; 10 μM. The class given is binding.
For assay [24], the target named is 456 kinases (of these 395 non-mutant kinases) (Homo sapiens, UniProt P20794). Put plainly: Kinase Profiling (KINOMEscan). The class given is binding. As to conditions: MAK; 10 μM.

Chain of 456 kinases (of these 395 non-mutant kinases) (Homo sapiens, UniProt P49840) (P49840 2-483 limits assumed, change not shown): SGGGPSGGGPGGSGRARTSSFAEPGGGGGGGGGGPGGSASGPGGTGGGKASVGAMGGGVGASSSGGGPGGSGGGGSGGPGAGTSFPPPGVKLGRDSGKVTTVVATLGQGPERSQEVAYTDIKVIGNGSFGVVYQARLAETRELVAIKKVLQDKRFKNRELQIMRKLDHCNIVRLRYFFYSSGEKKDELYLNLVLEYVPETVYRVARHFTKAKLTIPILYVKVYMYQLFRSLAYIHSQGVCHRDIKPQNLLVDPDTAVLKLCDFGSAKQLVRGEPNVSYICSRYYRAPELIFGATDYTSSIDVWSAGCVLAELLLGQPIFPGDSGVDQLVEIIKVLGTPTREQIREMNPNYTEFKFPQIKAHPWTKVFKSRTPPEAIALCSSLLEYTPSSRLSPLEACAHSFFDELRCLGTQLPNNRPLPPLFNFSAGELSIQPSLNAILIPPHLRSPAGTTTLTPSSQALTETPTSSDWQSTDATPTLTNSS
Chain of 456 kinases (of these 395 non-mutant kinases) (Homo sapiens, UniProt Q9P289) (Q9P289 2-416 limits assumed, change not shown): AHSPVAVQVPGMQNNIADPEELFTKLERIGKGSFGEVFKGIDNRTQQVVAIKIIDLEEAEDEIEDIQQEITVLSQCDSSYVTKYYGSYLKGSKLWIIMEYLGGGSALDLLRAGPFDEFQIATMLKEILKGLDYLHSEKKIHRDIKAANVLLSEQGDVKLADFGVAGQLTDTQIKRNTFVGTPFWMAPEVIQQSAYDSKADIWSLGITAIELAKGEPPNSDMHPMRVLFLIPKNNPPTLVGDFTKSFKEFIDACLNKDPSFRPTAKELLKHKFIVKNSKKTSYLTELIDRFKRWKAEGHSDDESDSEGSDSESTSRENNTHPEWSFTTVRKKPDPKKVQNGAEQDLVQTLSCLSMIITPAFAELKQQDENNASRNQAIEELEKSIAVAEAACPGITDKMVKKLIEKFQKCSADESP
Chain of 456 kinases (of these 395 non-mutant kinases) (Homo sapiens, UniProt Q9Y2H1) (Q9Y2H1 2-464 limits assumed, change not shown): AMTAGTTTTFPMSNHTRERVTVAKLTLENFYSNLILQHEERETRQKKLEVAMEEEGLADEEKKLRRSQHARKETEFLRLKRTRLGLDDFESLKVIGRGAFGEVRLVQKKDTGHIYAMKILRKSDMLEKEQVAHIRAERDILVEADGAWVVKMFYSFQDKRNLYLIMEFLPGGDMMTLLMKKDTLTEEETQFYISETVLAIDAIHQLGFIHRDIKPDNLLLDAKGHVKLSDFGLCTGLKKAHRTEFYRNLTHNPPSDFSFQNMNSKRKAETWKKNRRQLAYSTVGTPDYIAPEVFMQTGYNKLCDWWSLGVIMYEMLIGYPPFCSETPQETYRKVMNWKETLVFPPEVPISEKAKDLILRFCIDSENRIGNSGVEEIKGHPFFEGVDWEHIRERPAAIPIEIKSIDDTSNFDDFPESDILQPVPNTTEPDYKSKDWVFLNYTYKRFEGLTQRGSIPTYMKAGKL
Chain of 456 kinases (of these 395 non-mutant kinases) (Homo sapiens, UniProt P54756) (P54756 25-1037 limits assumed, change not shown): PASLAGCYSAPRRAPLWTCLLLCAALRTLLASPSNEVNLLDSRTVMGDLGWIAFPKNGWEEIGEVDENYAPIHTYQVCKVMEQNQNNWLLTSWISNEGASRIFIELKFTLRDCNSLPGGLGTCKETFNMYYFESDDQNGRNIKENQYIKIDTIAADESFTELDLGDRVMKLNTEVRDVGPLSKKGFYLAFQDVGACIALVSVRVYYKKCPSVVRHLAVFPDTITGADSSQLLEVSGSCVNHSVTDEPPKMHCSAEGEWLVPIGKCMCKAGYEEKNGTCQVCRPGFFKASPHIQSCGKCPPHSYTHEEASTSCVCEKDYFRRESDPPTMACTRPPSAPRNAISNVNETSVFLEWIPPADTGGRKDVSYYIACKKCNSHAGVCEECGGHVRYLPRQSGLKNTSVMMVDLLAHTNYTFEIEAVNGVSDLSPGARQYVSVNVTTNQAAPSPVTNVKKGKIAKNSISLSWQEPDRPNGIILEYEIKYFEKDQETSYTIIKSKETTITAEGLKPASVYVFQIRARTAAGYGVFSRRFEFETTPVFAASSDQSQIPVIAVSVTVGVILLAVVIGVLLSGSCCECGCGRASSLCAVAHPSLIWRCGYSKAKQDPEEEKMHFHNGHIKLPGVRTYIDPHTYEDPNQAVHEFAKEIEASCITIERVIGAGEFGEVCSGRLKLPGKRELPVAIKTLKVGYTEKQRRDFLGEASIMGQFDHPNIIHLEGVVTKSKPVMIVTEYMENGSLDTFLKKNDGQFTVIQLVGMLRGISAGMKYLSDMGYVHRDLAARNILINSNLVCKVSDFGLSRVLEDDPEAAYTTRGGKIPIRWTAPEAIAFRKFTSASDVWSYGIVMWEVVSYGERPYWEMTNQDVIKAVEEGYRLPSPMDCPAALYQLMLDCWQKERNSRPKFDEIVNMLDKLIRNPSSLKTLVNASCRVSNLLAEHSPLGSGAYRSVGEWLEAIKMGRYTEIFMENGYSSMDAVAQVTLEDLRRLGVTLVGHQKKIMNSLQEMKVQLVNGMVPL

As to `CCc1ccccc1NC(=O)c1c(C)nsc1Nc1cnc2cc(F)ccc2n1` [Example 20, N-(2-Ethylphenyl)-5-[(6-fluoroquinoxalin-2-yl)amino]-3-methyl-1,2-thiazole-4-carboxamide], the IC50 in assay [1] worked out at 550 nM; in assay [2], 440 nM; in assay [3], 600 nM; in assay [4] it was 530 nM; in [5], 500 nM. For the same compound, the “% Ctrl @ 10 μM” value in assay [6] is reported as 100 % Ctrl; in assay [7], 92 % Ctrl; in assay [8], 100 % Ctrl; in assay [9], 68 % Ctrl; in assay [10], 100 % Ctrl; in assay [11], 100 % Ctrl. In addition, the “% Ctrl @ 10 μM” value in assay [12] came out at 100 % Ctrl; in assay [13], 93 % Ctrl; in assay [14] (TYK2(JH1domain-catalytic)), 100 % Ctrl; in assay [14] (TYK2(JH2domain-pseudokinase)) it was 100 % Ctrl; in assay [15] it was 100 % Ctrl; in assay [16] (RSK1(Kin.Dom.1-N-terminal)) it was 95 % Ctrl. Further, the “% Ctrl @ 10 μM” value was 86 % Ctrl in [16] (RSK1(Kin.Dom.2-C-terminal)); 68 % Ctrl in assay [17]; 75 % Ctrl in assay [18]; 93 % Ctrl in assay [19]; 71 % Ctrl in [20]; 84 % Ctrl in assay [21]. In addition, the entries for the “% Ctrl @ 10 μM” value in [22], in assay [23] and in assay [24] were 100 % Ctrl, 99 % Ctrl and 100 % Ctrl, respectively.
Regarding `CCOC(=O)c1cnn2ccc(Nc3snc(C)c3C(=O)Nc3ccc(F)c(F)c3)nc12` [Example 55, Ethyl 5-({4-[(3,4-difluorophenyl)carbamoyl]-3-methyl-1,2-thiazol-5-yl}amino)-pyrazolo[1,5-a]pyrimidine-3-carboxylate], the IC50 in assay [1] is 150 nM; in [2], 300 nM; in assay [3], 390 nM; in assay [4], 380 nM; in assay [5] it was 140 nM.
The corresponding values for `Cc1nsc(Nc2cnccn2)c1C(=O)Nc1ccc(Cl)c(F)c1` [Example 56, N-(4-Chloro-3-fluorophenyl)-3-methyl-5-(pyrazin-2-ylamino)-1,2-thiazole-4-carboxamide] are 560 nM, 370 nM, 540 nM, 470 nM and 370 nM.
Take `Cc1nsc(Nc2cc(C#N)ccn2)c1C(=O)Nc1ccc(Oc2ccc(F)cc2F)nc1` [Example 114, 5-[(4-Cyanopyridin-2-yl)amino]-N-[6-(2,4-difluorophenoxy)pyridin-3-yl]-3-methyl-1,2-thiazole-4-carboxamide]: the IC50 in assay [1] stood at 980 nM; in [2] it was 520 nM; in assay [3] it was 1300 nM; in [4], 1200 nM; in assay [5] it was 690 nM.
